Source: BindingDB's records for doi:10.1124/mol.112.080291 (University of California San Diego, 2014)
pEC50, pKi: −log10 of the molar value. Values joined by “and” are separate entries in the source; they are usually repeats but may differ in a detail not shown here. Equal values may be shown once.

Experiments:
Assay in all cases: Synthesizing Selective Agonists for the ?7 Nicotinic Receptor with in situ Click-Chemistry on Acetylcholine Binding Protein Templates.
[1] = molecular target: T1, Soluble acetylcholine receptor (Aplysia californica, UniProt Q8WSF8); conditions: pH 7.4; 20 °C
T1 sequence (Q8WSF8 whole entry): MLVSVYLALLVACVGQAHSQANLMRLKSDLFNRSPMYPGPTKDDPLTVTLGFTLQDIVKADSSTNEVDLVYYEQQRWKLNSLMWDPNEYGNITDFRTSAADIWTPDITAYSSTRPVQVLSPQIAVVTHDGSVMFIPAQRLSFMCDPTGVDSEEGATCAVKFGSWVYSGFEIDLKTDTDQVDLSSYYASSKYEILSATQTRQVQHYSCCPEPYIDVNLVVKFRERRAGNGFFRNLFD
Procedure: (§1) Assay Description 2 Assays used to generate Ki or EC50 values. 1) SPA Assay - Quick screen binding assays were performed using 100 l of 0.2 mg/ml anti-mouse SPA antibody-binding beads (Amersham Biosciences) mixed with 33.6 g of monoclonal anti-FLAG M2 antibody from mouse (Sigma) in 0.1 M NaPO4 buffer, pH 7.0 (SPA mixture). Media (5l) collected 2 days after transfection were added to the mixture and finally 10 l of (+)-[3H]epibatidine (PerkinElmer Life Sciences) was added at a final concentration of 10 nM. Solutions were each counted for 1 min on either a Beckman LS 6500 liquid scintillation counter or Wallac 1450 Microbeta Trilux. Negative and positive controls consisted of media (5 l) from the respective transfections. Nonexpressing mutants were transfected and verified de novo in triplicate. Western immunoblots were also performed upon media (15 l) from transfections to verify the lack of expression. Competition curves and direct binding were measured following the protocol p

[2] = molecular target: T2, 5-hydroxytryptamine receptor 3A (Mus musculus, UniProt P23979); conditions: pH 7.4; 37 °C
T2 sequence (P23979 whole entry): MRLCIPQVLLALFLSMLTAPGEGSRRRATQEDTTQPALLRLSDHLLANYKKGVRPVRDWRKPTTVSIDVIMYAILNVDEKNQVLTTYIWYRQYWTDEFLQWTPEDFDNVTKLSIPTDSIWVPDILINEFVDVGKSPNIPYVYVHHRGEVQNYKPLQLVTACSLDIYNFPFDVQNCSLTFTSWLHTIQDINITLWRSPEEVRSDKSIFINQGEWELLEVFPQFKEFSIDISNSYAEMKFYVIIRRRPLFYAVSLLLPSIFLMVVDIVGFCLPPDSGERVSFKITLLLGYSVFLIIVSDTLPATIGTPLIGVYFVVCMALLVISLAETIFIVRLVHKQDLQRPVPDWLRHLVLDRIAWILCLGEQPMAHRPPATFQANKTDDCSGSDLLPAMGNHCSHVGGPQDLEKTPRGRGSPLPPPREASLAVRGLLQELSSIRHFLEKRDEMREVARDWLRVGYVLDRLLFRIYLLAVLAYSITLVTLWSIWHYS
Procedure: as §1

[3] = molecular target: Acetylcholine-binding protein (Lymnaea stagnalis, UniProt P58154); conditions: pH 7.4; 20 °C
Chain of Acetylcholine-binding protein (P58154 whole entry): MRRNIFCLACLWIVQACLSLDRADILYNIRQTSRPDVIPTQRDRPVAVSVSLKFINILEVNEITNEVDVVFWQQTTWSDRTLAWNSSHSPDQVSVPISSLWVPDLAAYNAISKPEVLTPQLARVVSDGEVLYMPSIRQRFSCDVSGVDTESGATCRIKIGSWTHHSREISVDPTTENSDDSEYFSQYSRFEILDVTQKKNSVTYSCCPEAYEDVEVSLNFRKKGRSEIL
Procedure: as §1

[4] = molecular target: Neuronal acetylcholine receptor subunit alpha-7 (Homo sapiens, UniProt P36544); conditions: pH 7.4; 37 °C
Chain of Neuronal acetylcholine receptor subunit alpha-7 (P36544 whole entry): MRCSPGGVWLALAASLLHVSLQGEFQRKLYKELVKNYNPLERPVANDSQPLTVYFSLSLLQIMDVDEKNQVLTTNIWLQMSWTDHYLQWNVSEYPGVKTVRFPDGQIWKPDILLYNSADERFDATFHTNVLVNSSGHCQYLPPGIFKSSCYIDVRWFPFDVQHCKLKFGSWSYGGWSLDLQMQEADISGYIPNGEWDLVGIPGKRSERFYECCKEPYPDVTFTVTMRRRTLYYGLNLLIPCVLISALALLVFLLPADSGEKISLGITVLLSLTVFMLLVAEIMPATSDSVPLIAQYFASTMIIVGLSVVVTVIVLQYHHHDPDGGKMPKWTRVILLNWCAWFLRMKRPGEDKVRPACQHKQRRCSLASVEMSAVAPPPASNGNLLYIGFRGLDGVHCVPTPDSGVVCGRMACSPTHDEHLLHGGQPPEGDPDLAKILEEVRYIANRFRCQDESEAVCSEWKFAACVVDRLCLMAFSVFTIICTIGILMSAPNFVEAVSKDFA
Procedure: as §1

[5] = molecular target: Neuronal acetylcholine receptor subunit alpha-4 (Homo sapiens, UniProt P43681); conditions: pH 7.4; 37 °C
Chain of Neuronal acetylcholine receptor subunit alpha-4 (P43681 whole entry): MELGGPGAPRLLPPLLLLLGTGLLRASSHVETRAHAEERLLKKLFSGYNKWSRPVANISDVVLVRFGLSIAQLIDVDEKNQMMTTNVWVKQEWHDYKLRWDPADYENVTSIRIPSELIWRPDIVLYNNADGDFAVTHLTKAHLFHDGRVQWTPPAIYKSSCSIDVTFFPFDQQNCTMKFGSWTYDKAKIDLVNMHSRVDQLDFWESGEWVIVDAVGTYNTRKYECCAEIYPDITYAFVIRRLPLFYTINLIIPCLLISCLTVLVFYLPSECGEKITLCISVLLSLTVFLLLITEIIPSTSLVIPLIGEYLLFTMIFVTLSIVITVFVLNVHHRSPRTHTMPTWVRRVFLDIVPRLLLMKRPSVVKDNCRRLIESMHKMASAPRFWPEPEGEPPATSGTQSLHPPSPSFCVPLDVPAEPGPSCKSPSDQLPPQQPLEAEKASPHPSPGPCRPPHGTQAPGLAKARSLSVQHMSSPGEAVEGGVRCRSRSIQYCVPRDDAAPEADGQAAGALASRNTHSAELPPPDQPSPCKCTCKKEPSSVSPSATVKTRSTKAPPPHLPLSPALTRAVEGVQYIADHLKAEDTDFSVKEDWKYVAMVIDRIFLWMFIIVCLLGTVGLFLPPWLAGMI
Procedure: as §1

Compound	pKi [1]	pKi [2]	pKi [3]	pEC50 [4]	pKi [5]
Cn1nncc1COc1cc(=O)n(C)c2ccccc12 [alpha7 agonists 1']	5.85 and 6.77	< 4.52	7.22	5.22	4.52
CN1[C@@H]2CC[C@H]1C[C@H](n1cc(CSc3nc4ccccc4s3)nn1)C2 [15t]	6.62 and 6.85 and 6.96	4.49	7.40	4.92	4.49
Cn1c(=O)cc(OCc2cn(CCC[N+]3(C)CCCC3)nn2)c2ccccc21 [alpha7 agonists 5]	–	< 4.52	–	6.10	4.74
CN1[C@@H]2CC[C@H]1C[C@H](n1cc(CNS(=O)(=O)c3ccc([N+](=O)[O-])cc3)nn1)C2 [16t]	< 5.30	< 4.52	< 5.30	5.30	< 4.52
Cc1cc(C)nc(SCCCc2cn([C@@H]3C[C@H]4CC[C@@H](C3)N4C)nn2)n1 [21t]	–	< 4.52	6.52	< 4.52	< 4.52
CN1[C@@H]2CC[C@H]1C[C@H](n1cc(COc3ccccc3-c3ccno3)nn1)C2 [14t]	–	< 4.52	7.60	< 4.52	< 4.52
CN1[C@@H]2CC[C@H]1C[C@H](n1cc(CNC(=O)c3ccco3)nn1)C2 [12t]	< 5.30 and 5.85	< 4.52	6.68	< 4.52	4.70
Cn1c(=O)cc(OCc2cn(CC[N+]3(C)CCCCC3)nn2)c2ccccc21 [alpha7 agonists 2]	–	< 4.52	–	5.92	4.92
C[N+]1(C)[C@@H]2CC[C@H]1C[C@H](n1cc(CNC(=O)c3ccco3)nn1)C2 [12q]	6.22 and 6.00 and 6.15	< 4.52	6.40	5.52	< 4.52
O=c1cc(OCc2cnnn2CC[N+]23CCC(CC2)CC3)c2ccccc2[nH]1 [3']	6.60 and 6.54	< 4.52	7.62	5.54	4.52
Cn1c(=O)cc(OCc2cn(CC[N+]34CCC(CC3)CC4)nn2)c2ccccc21 [alpha7 agonists 3]	–	< 4.52	–	5.74	5.10
C[N+](C)(C)CCn1cc(COc2cc([O])nc3ccccc23)nn1 [alpha7 agonists 6]	–	< 4.52	–	5.77	4.85
CN1CC=C(OCc2cnnn2C2CC3CCC(C2)[N+]3(C)C)c2ccccc21 (stereo unspecified) [4']	6.52 and 7.00	6.05	8.70	6.22	4.64
Cc1cc([N+](=O)[O-])ccc1OCc1cn([C@@H]2C[C@H]3CC[C@@H](C2)[N+]3(C)C)nn1 [alpha7 agonists 9]	–	< 4.52	–	5.72	4.85
CN1[C@@H]2CC[C@H]1C[C@H](n1cc(COc3cc(=O)n(C)c4ccccc34)nn1)C2 [alpha7 agonists 4t]	–	4.82	8.89	4.96	4.85
CN1[C@@H]2CC[C@H]1C[C@H](n1cc(-c3cc(C(F)(F)F)cc(C(F)(F)F)c3)nn1)C2 [17t]	5.96 and < 5.30	< 4.52	6.22	< 4.52	< 4.52
C[N+]1(C)[C@@H]2CC[C@H]1C[C@H](n1cc(CNS(=O)(=O)c3ccc([N+](=O)[O-])cc3)nn1)C2 [16q]	6.21 and 6.10 and 6.22	< 4.52	< 5.30	5.74	< 4.52
C[N+]1(C)[C@@H]2CC[C@H]1C[C@H](n1cc(CSc3nc4ccccc4s3)nn1)C2 [15q]	7.89 and 8.10	< 4.52	8.40	6.70	5.52
C[N+]1(C)[C@@H]2CC[C@H]1C[C@H](n1cc(C(O)(c3ccccc3)C(F)(F)F)nn1)C2 (stereo partly specified) [19q]	–	< 4.52	6.92	5.70	4.66
Cn1c(=O)cc(OCc2cnnn2CCC[N+]2(C)CCCC2)c2ccccc21 [5']	5.85 and 6.10	< 4.52	6.22	5.70	4.40

Compound	pKi [1]	pKi [2]	pKi [3]	pEC50 [4]	pKi [5]
CN1[C@@H]2CC[C@H]1C[C@H](n1cc(COc3ccccc3C3CCCC3)nn1)C2 [18t]	–	4.92	7.52	< 4.52	4.92
CC(=O)c1c(OCc2cn([C@@H]3C[C@H]4CC[C@@H](C3)N4C)nn2)ccc2ccccc12 [22t]	6.10 and 6.15 and < 5.30	4.92	6.85	5.05	4.92
CN1[C@@H]2CC[C@H]1C[C@H](n1cc(C3(O)c4ccccc4-c4ccccc43)nn1)C2 [20t]	5.70 and 5.51 and < 5.30	< 4.52	6.30	4.92	< 4.52
CN1[C@@H]2CC[C@H]1C[C@H](n1cc(CNC(=O)N3c4ccccc4CCc4ccccc43)nn1)C2 [23t]	5.89 and 5.99 and < 5.30	< 4.52	< 5.30	< 4.52	< 4.52
COc1cc(C=O)ccc1OCc1cn([C@@H]2C[C@H]3CC[C@@H](C2)[N+]3(C)C)nn1 [alpha7 agonists 8]	–	< 4.52	–	6.00	5.22
C[N+]1(C)[C@@H]2CC[C@H]1C[C@H](n1cc(COc3ccccc3C3CCCC3)nn1)C2 [18q]	6.59 and 6.57 and 6.36	< 4.52	7.15	6.40	5.40
CC(=O)NCc1cn([C@@H]2C[C@H]3CC[C@@H](C2)N3C)nn1 [10t]	< 5.30	< 4.52	6.05	< 4.52	4.74
COc1ccc(C=O)c(OCc2cn([C@@H]3C[C@H]4CC[C@@H](C3)N4C)nn2)c1 [13t]	–	5.30	7.59	< 4.52	5.30
CN1[C@@H]2CC[C@H]1C[C@H](n1cc(C(O)(c3ccccc3)C(F)(F)F)nn1)C2 (stereo partly specified) [19t]	< 5.30	< 4.52	< 5.30	< 4.52	< 4.52
CC(=O)c1c(OCc2cn([C@@H]3C[C@H]4CC[C@@H](C3)[N+]4(C)C)nn2)ccc2ccccc12 [22q]	6.70 and 6.52 and 6.05	< 4.52	6.80	6.40	< 4.52
CC(=O)NCc1cn([C@@H]2C[C@H]3CC[C@@H](C2)[N+]3(C)C)nn1 [10q]	6.10 and < 5.30 and 6.05	< 4.52	< 5.30	5.30	< 4.52
C[N+]1(C)[C@@H]2CC[C@H]1C[C@H](n1cc(COc3cccc(C#N)c3)nn1)C2 [alpha7 agonists 7]	–	< 4.52	–	6.05	< 4.52
CCC[N+](C)(C)CCn1nncc1COc1cc(=O)n(C)c2ccccc12 [2']	6.10 and 6.68	< 4.52	7.40	5.38	< 4.52
C[N+]1(C)[C@@H]2CC[C@H]1C[C@H](n1cc(C3(O)c4ccccc4-c4ccccc43)nn1)C2 [20q]	6.40 and 6.22 and 6.92	< 4.52	7.30	5.40	4.82
COc1ccc(C=O)c(OCc2cn([C@@H]3C[C@H]4CC[C@@H](C3)[N+]4(C)C)nn2)c1 [13q]	6.96 and 6.92 and 7.10	< 4.52	7.70	6.10	5.15
C[N+]1(C)[C@@H]2CC[C@H]1C[C@H](n1cc(-c3cc(C(F)(F)F)cc(C(F)(F)F)c3)nn1)C2 [17q]	6.96 and 6.52 and 6.40	5.10	6.89	6.05	5.30
C[N+]1(C)[C@@H]2CC[C@H]1C[C@H](n1cc(COc3ccccc3-c3ccno3)nn1)C2 [14q]	6.85 and 6.77 and 7.02	< 4.52	7.30	5.70	< 4.52
Cc1cc(C)nc(SCCCc2cn([C@@H]3C[C@H]4CC[C@@H](C3)[N+]4(C)C)nn2)n1 [21q]	–	< 4.52	7.40	5.52	4.57
C[N+]1(C)[C@@H]2CC[C@H]1C[C@H](n1cc(C3(O)CCCCC3)nn1)C2 [11q]	–	< 4.52	< 5.30	5.05	< 4.52
Cn1c(=O)cc(OCc2cn([C@@H]3C[C@H]4CC[C@@H](C3)[N+]4(C)C)nn2)c2ccccc21 [alpha7 agonists 4]	–	4.47	–	6.52	5.40
